Results published in patent US6737383B1, “Herbicidal oxadiazolidines” (priority 1999, dated 2004).

Columns and labels:
[1] = test system: bedstraw; assay: Test B pre/postemergence bedstraw; format: in vivo, Galium aparine; settings: Preemergence
Method in brief: (§1)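 Herbicidal effect was estimated by eye on a ten-point control scale after plants spent twelve to sixteen days in a greenhouse following soil or foliar treatment. Foliar sprays targeted plants at one to four leaves; all doses were formulated in a non-phytotoxic solvent with surfactant.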

[2] = test system: blackgrass; assay: Test B pre/postemergence blackgrass; format: in vivo, Alopecurus myosuroides
Method in brief: as §1

[3] = test system: surinam grass; assay: Test B pre/postemergence surinam grass; format: in vivo, Brachiaria decumbens
Method in brief: as §1

[4] = test system: cocklebur; assay: Test B pre/postemergence cocklebur; format: in vivo, Xanthium strumarium
Method in brief: as §1

[5] = test system: corn; assay: Test B pre/postemergence corn; format: in vivo, Zea mays
Method in brief: as §1

[6] = test system: crabgrass; assay: Test B pre/postemergence crabgrass; format: in vivo, Digitaria sanguinalis
Method in brief: as §1

[7] = test system: giant foxtail; assay: Test B pre/postemergence giant foxtail; format: in vivo, Setaria faberii
Method in brief: as §1

[8] = test system: morningglory; assay: Test B pre/postemergence morningglory; format: in vivo, Ipomoea hederacea
Method in brief: as §1

[9] = test system: pigweed; assay: Test B pre/postemergence pigweed; format: in vivo, Amaranthus retroflexus
Method in brief: as §1

[10] = test system: rape; assay: Test B pre/postemergence rape; format: in vivo, Brassica napus
Method in brief: as §1

[11] = test system: soybean; assay: Test B pre/postemergence soybean; format: in vivo, Glycine max
Method in brief: as §1

[12] = test system: sugar beet; assay: Test B pre/postemergence sugar beet; format: in vivo, Beta vulgaris
Method in brief: as §1

[13] = test system: velvetleaf; assay: Test B pre/postemergence velvetleaf; format: in vivo, Abutilon theophrasti
Method in brief: as §1

[14] = test system: wheat; assay: Test B pre/postemergence wheat; format: in vivo, Triticum aestivum
Method in brief: as §1

[15] = test system: wild oat; assay: Test B pre/postemergence wild oat; format: in vivo, Avena fatua
Method in brief: as §1

[16] = test system: purple nutsedge; assay: Test B pre/postemergence purple nutsedge; format: in vivo, Cyperus rotundus
Method in brief: as §1

[17] = test system: rice; assay: Test B flood test rice; format: in vivo, Oryza sativa
Method in brief: (§2)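 Each value is a visual injury score relative to controls, with 10 meaning complete control and 0 no effect. Evaluation took place twelve to sixteen days after the 2-leaf-stage plants were treated and kept in the greenhouse.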

[18] = test system: smallflower flatsedge; assay: Test B flood test smallflower flatsedge; format: in vivo, Cyperus difformis
Method in brief: as §2

[19] = test system: duck salad; assay: Test B flood test duck salad; format: in vivo, Heteranthera limosa
Method in brief: as §2

[20] = test system: bamyardgrass; assay: Test B flood test barnyardgrass; format: in vivo, Echinochloa crus-galli
Method in brief: as §2

[21] = Postemergence, Rate 125 g/ha, scale 0 to 10, 0 is no effect, 10 is complete control
[22] = Postemergence, Rate 250 g/ha, scale 0 to 10, 0 is no effect, 10 is complete control
[23] = Postemergence, Rate 500 g/ha, scale of 0 to 10 where 0 is no effect and 10 is complete control
[24] = Preemergence, Rate 62 g/ha, scale 0 to 10 (0 no effect, 10 complete control)
[25] = Preemergence, Rate 125 g/ha, scale of 0 to 10 where 0 is no effect and 10 is complete control
[26] = Preemergence, Rate 250 g/ha, scale of 0 to 10 where 0 is no effect and 10 is complete control
[27] = Preemergence, Rate 500 g/ha, scale 0 to 10, 0 is no effect, 10 is complete control
[28] = Rate 62 g/ha, Postemergence, scale of 0 to 10 where 0 is no effect and 10 is complete control
[29] = Preemergence, Rate 250 g/ha, scale 0 to 10, 0 is no effect, 10 is complete control
[30] = Rate 62 g/ha, flood test species, Pre-emergence, visual evaluation after twelve to sixteen days
[31] = Rate 125 g/ha, under heading Pre-emergence, flood test species, visual evaluation after twelve to sixteen days
[32] = Rate 250 g/ha, Pre-emergence, flood-test species, scale 0 to 10, 0 is no effect, 10 is complete control
[33] = Rate 500 g/ha, Pre-emergence, flood test species, scale 0 to 10 (0 no effect, 10 complete control)

Cc1nc(Cl)sc1C(C)n1c(=O)on(C(=O)N(c2ccc(Cl)cc2)C(C)C)c1=O (centres unmarked) [Compound 406]
0: Plant response rating, Bedstraw ([1]; Rate 62 g/ha, scale 0 to 10 (0 no effect, 10 complete control)) | Plant response rating, Bedstraw ([1]; Rate 125 g/ha, scale of 0 to 10 where 0 is no effect and 10 is complete control) | Bedstraw plant response rating ([1]; Rate 250 g/ha, scale of 0 to 10 where 0 is no effect and 10 is complete control) | Plant response rating, Blackgrass [2, 21] | Plant response rating, Blackgrass [2, 22] | Blackgrass plant response rating [2, 23] | Plant response rating, Blackgrass [2, 24] | Plant response rating, Blackgrass [2, 25] | Blackgrass plant response rating [2, 26] | Blackgrass plant response rating [2, 27] | Blackgrass plant response rating [2, 28] | Plant response rating, B. signalgrass [3, 21] | Plant response rating, B. signalgrass [3, 22] | B. signalgrass plant response rating [3, 23] | Plant response rating, B. signalgrass [3, 24] | Plant response rating, B. signalgrass [3, 25] | B. signalgrass plant response rating [3, 26] | B. signalgrass plant response rating ([3]; Preemergence, Rate 500 g/ha, scale of 0 to 10 where 0 is no effect and 10 is complete control) | B. signalgrass plant response rating [3, 28] | Plant response rating, Cocklebur [4, 21] | Plant response rating, Cocklebur [4, 22] | Cocklebur plant response rating [4, 23] | Plant response rating, Cocklebur [4, 24] | Plant response rating, Cocklebur [4, 25] | Cocklebur plant response rating [4, 29] | Cocklebur plant response rating [4, 27] | Cocklebur plant response rating [4, 28] | Plant response rating, Corn [5, 21] | Plant response rating, Corn [5, 22] | Corn plant response rating [5, 23] | Plant response rating, Corn [5, 24] | Plant response rating, Corn [5, 25] | Corn plant response rating [5, 29] | Corn plant response rating [5, 27] | Corn plant response rating [5, 28] | Plant response rating, Crabgrass [6, 21] | Plant response rating, Crabgrass [6, 22] | Crabgrass plant response rating [6, 23] | Plant response rating, Crabgrass [6, 24] | Plant response rating, Crabgrass [6, 25] | Crabgrass plant response rating [6, 28] | Plant response rating, Giant foxtail [7, 21] | Plant response rating, Giant foxtail [7, 22] | Giant foxtail plant response rating [7, 23] | Plant response rating, Giant foxtail [7, 24] | Plant response rating, Giant foxtail [7, 25] | Giant foxtail plant response rating [7, 28] | Plant response rating, Morningglory [8, 24] | Plant response rating, Morningglory [8, 25] | Morningglory plant response rating [8, 29] | Morningglory plant response rating [8, 27] | Plant response rating, Redroot pigweed [9, 22] | Redroot pigweed plant response rating [9, 23] | Plant response rating, Redroot pigweed [9, 24] | Plant response rating, Redroot pigweed [9, 25] | Redroot pigweed plant response rating [9, 29] | Redroot pigweed plant response rating [9, 27] | Plant response rating, Rape [10, 22] | Rape plant response rating [10, 23] | Plant response rating, Rape [10, 24] | Plant response rating, Rape [10, 25] | Rape plant response rating [10, 29] | Rape plant response rating [10, 27] | Plant response rating, Soybean [11, 24] | Plant response rating, Soybean [11, 25] | Soybean plant response rating [11, 29] | Soybean plant response rating [11, 27] | Plant response rating, Sugarbeets [12, 22] | Sugarbeets plant response rating [12, 23] | Plant response rating, Sugarbeets [12, 24] | Plant response rating, Sugarbeets [12, 25] | Sugarbeets plant response rating [12, 29] | Sugarbeets plant response rating [12, 27] | Plant response rating, Velvetleaf [13, 22] | Velvetleaf plant response rating [13, 23] | Plant response rating, Velvetleaf [13, 24] | Plant response rating, Velvetleaf [13, 25] | Velvetleaf plant response rating [13, 29] | Velvetleaf plant response rating [13, 27] | Wheat plant response rating [14, 23] | Plant response rating, Wheat [14, 24] | Plant response rating, Wheat [14, 25] | Wheat plant response rating [14, 29] | Wheat plant response rating [14, 27] | Wild oats plant response rating [15, 23] | Plant response rating, Wild oats [15, 24] | Plant response rating, Wild oats [15, 25] | Wild oats plant response rating [15, 29] | Wild oats plant response rating [15, 27] | Plant response rating, Nutsedge [16, 22] | Nutsedge plant response rating [16, 23] | Plant response rating, Nutsedge [16, 24] | Plant response rating, Nutsedge [16, 25] | Nutsedge plant response rating [16, 29] | Nutsedge plant response rating [16, 27] | Plant response rating, Rice (0 to 10 scale, 0 is no effect, 10 is complete control) [17, 30] | Rice plant response rating (0 to 10 scale, 0 is no effect, 10 is complete control) [17, 31] | Rice plant response rating [17, 32] | Rice plant response rating [17, 33] | Plant response rating, S. Flatsedge (0 to 10 scale, 0 is no effect, 10 is complete control) [18, 30] | S. Flatsedge plant response rating (0 to 10 scale, 0 is no effect, 10 is complete control) [18, 31] | S. Flatsedge plant response rating [18, 32] | S. Flatsedge plant response rating [18, 33] | Plant response rating, Ducksalad (0 to 10 scale, 0 is no effect, 10 is complete control) [19, 30] | Ducksalad plant response rating (0 to 10 scale, 0 is no effect, 10 is complete control) [19, 31] | Ducksalad plant response rating [19, 32] | Ducksalad plant response rating [19, 33] | Plant response rating, Barnyardgrass (0 to 10 scale, 0 is no effect, 10 is complete control) [20, 30] | Barnyardgrass plant response rating (0 to 10 scale, 0 is no effect, 10 is complete control) [20, 31] | Barnyardgrass plant response rating [20, 32] | Barnyardgrass plant response rating [20, 33]
2: Crabgrass plant response rating [6, 29] | Giant foxtail plant response rating [7, 29] | Plant response rating, Morningglory [8, 22] | Morningglory plant response rating [8, 23] | Plant response rating, Soybean [11, 22] | Soybean plant response rating [11, 23]
9: Giant foxtail plant response rating [7, 27]
6: Crabgrass plant response rating [6, 27]
